From a melting point compilation (Tetko et al.; mined from patent text by program, amines drawn as free bases though some values may be those of a salt)

Structure (SMILES) | melting point
CCC[C@H]1[C@@H](O)CC(=O)N1c1ccc(C#N)c(Cl)c1 | 143 to 146 °C
C=CCn1nnc2cc3c(=O)n(C(C)Cn4ncnn4)nnc3cc2c1=O (centres undefined) | 159 to 161 °C
Brc1cccc(C2Cc3cnc(Nc4ccc(CCNCCN5CCOCC5)cc4)nc3-c3ccccc32)c1 (centres undefined) | 85 to 87 °C
CC1(C)N=C(c2ccccc2Cl)c2cc(N)ccc2-n2cnnc21 | 264 °C
CC(C)(C)NC(=O)[C@@H]1CSCN1 | 68 to 71 °C
Cc1ccc2c(c1)N=C(N1CCN(C)CC1)c1cc(C)sc1O2 | 146 to 148 °C
OCc1ccc(Cl)cc1Cc1ccccc1 | 46.5 to 49 °C
CN(CCCCC(=O)N1CCN(c2nc3cc(C(=O)Nc4nc(C(C)(C)C)cs4)ccn3c(=O)c2/C=C/C(=O)O)CC1)CC(=O)O | 169 to 172 °C
CSCc1nc(C)c(C)c(O)n1 | 166 °C
Nc1nnc(-c2ccc(F)c(F)c2Nc2ccc(Br)cc2F)o1 | 245 °C
COc1cccc2c1CN(c1c(F)cc3c(=O)c(C(=O)O)cn4c3c1OCC4C)C2 (centres undefined) | 262 to 264 °C
CS(=O)(=O)c1ccc([C@@H](CC2CCCC2)C(=O)Nc2nc3ccccc3s2)cc1 | 100 to 105 °C
CC(=O)N1C(=O)C2(COc3cc4c(cc32)OCCO4)c2ccccc21 (centres undefined) | 236 to 238 °C
C=C1C(=C)C2OC1C1=C2CC2C(O)C=CC(=O)C2C1 (centres undefined) | 110 °C
N#CCCn1cc(C#N)c([N+](=O)[O-])n1 | 137 to 139 °C
COc1cc2nc(N3CCC(N4C(=O)C(C)C(C)C4=O)CC3)nc(N)c2cc1OC (centres undefined) | 267 to 268 °C
N=C(CSc1nc2cc(Cl)ccc2s1)NO | 155 to 157 °C
Clc1ccc(N2CCN(Cc3c[nH]c4ncccc34)CC2)nc1 | 196 to 198 °C
CCOC(=O)c1[nH]cc2c1NC1=C(C(=O)CCC1)C2c1cnc(Sc2nc3ccccc3[nH]2)s1 (centres undefined) | 194 °C
COc1cc(C(C#Cc2cnc(N)nc2N)OC)cc(OC)c1OC (centres undefined) | 184 to 186 °C
COC1(c2cc(F)cc(Sc3ccc4c(c3)n(C)c(=O)n4C)c2)CCOCC1 | 128 to 130 °C
CC(=O)OCC1OC(N)C(OC(C)=O)C(OC(C)=O)C1OC(C)=O (centres undefined) | 145 to 147 °C
CCCCNS(=O)(=O)C[C@@H](O)C(O)[C@@H](CC1CCCCC1)NC(=O)[C@H](CC(C)C)NC(=O)OCc1ccccc1 (relative stereo) | 50 to 70 °C

Structure (SMILES) | melting point
COc1ccc2c(c1)C(C)(C)C(CO)O2 (centres undefined) | 65 to 67 °C
COc1cc(-c2nc(NC3CCCC3)c3c(C)c(C#N)sc3n2)cc(OC)c1OC | 218 to 220 °C
CCCCc1ncc(C=C2C(=O)NC(=O)N2CCCC)n1Cc1ccccc1C(=O)O | 287 to 289 °C
CN=C1SCN(C(C)(C)C)C(=O)N1C | 51 to 52 °C
Cn1c(-c2ccc(OC3CCN(C4CCC4)CC3)cc2)nc2cccnc2c1=O | 182 to 183 °C
Clc1ccc(-c2oncc2-c2ccncc2)cc1 | 121 °C
CC(C)c1nc(-c2cccs2)cc(-c2ccc(F)cc2)c1C=C(Br)Br | 107 to 108 °C
Cc1cccc(-n2c(Cn3ccnc3)nc3ccccc32)c1 | 91 to 93 °C
Cc1c(C)c2c(c(C)c1NC(=O)c1ccc3c(c1)OCO3)C(c1ccc(C(C)C)cc1)C(C)(C)O2 (centres undefined) | 165 to 167 °C
CC(C)=CCCC(C)=CCCC(C)=Cc1ccc(C(=O)O)cc1 | 92 to 92.5 °C
CCC1(c2cn(-c3c(Cl)cc(C(F)(F)F)cc3Cl)nc2C#N)CC1(Br)Br (centres undefined) | 107 to 108 °C
Nc1cccc2nccnc12 | 87 to 90 °C
Clc1ccc(-c2nc3ccccc3n2-c2ccccc2)cc1 | 139 to 141 °C
CC(C)(C)OC(=O)Nc1c(F)ccc2c1OC(C)(C)O2 | 106 to 107 °C
CN1CCCC(n2nc(-c3c(-c4ccccc4)nn4ccccc34)ccc2=O)C1 (centres undefined) | 126 to 127 °C
CC(C)NCC(O)c1cc(Cl)c(N)c(C(F)(F)F)c1 (centres undefined) | 104 to 106 °C
Fc1ccc2[nH]cc(CCc3ccncc3)c2c1 | 128 °C
CC(C)(C)c1ccc(-c2ccc(N3CCCN(c4ccc(-c5ccc(C(C)(C)C)cc5)cn4)CC3)nc2)cc1 | 268 to 270 °C
Cc1cc(C)cc(OCC(=O)c2ccccc2Br)c1 | 74 °C
CC(=O)Nc1nc(CCCl)cs1 | 161 to 163 °C
CCN(CC)c1ccc2c(c1)C[C@@H]1c3ccccc3N[C@H]21 (relative stereo) | 116 to 118 °C
CC(C)(C)c1cc(SCCc2n[nH]c(=O)o2)cc(C(C)(C)C)c1O | 86 to 87.5 °C
CCC(=O)C1=CC=C(OC)C(Cl)(Cl)C1 | 51 to 54 °C

Results, then the compound that gave them:

melting point | Structure (SMILES)
168 to 170 °C | CCCCc1nc(C(C)O)c(C(=O)O)n1Cc1ccc(-c2ccccc2C(=O)O)cc1 (centres undefined)
204 to 206 °C | Cc1cc(C)cc(S(=O)(=O)n2c(CCCC(=O)O)cc3cc(Cl)ccc32)c1
127 to 129 °C | CCOC(=O)CNC(=O)CN(C(=O)c1ccc(Cl)cc1)c1c(C)cccc1C
151 to 153 °C | O=C(O)C1Oc2cc(Cl)c(S(=O)(=O)c3cccc(Cl)c3)cc2O1 (centres undefined)
109 to 110 °C | CCCOC(=O)c1cc(=O)c2cc(OCc3cccc(OCc4ccc5ccccc5n4)c3)ccc2o1
109 °C | CCOC(=O)[C@H](Cc1ccc(-c2c(OC)cc(COS(C)(=O)=O)cc2OC)cc1)NC(=O)c1c(Cl)cccc1Cl
147 to 148 °C | COC(=O)c1cccc(-c2nc(-c3ccc(F)c(F)c3)cs2)c1
110 to 112 °C | C=CCOC(=O)c1ccccc1OS(=O)(=O)NC(=O)Nc1nc(OC)cc(OC)n1
83 to 91 °C | COc1ccc(C2CNC(=O)O2)cc1OCc1ccccc1 (centres undefined)
70 °C | Cc1cc(-n2ccnc2)c2cccc(OCc3c(Cl)ccc(S(=O)(=O)N4CCC[C@H]4C(=O)N(C)CCCN(C)C(=O)OC(C)(C)C)c3Cl)c2n1
144 °C | CCCCN1C(=O)NC(Cc2ccc(C(=O)OC)cc2)C1=O (centres undefined)
83 to 85 °C | CCC(COC)NC(=O)C(Cc1ccc(OCc2ccccc2)cc1)NC(=O)C(CC(C)C)N(C)CCC(C)C (centres undefined)
202 to 204 °C | COc1ccc(-c2nc(C)c(NC(C)=O)[nH]2)cc1
37 °C | CCCCc1ccc(OC(=O)c2ccc(-c3ccc(CC(CC)CCCC)cc3)cc2)c(C#N)c1 (centres undefined)
122 to 123 °C | COCOc1ccc(CCCOc2nn(C)cc2CC(=O)O)c(Oc2ncc(C(F)(F)F)cc2Cl)c1
197 to 198 °C | COC(=O)c1ccccc1S(=O)(=O)NC(=O)Nc1nc(C)c2cc(C)oc2n1
59 to 61 °C | Cc1ccc(C2=C(c3ccc(S(C)(=O)=O)cc3)CN(C)C2=O)c(C)c1
151 °C | CC(C)N(C(C)C)S(=O)(=O)N[C@@H](Cc1ccc(NC(=O)c2c(Cl)cncc2Cl)cc1)C(=O)O
42 to 44 °C | CCOC(=O)CC(NC(=O)c1ccc(Cl)cc1)C(=O)C(C)C (centres undefined)
198 to 199 °C | N#CCCNC(=O)c1cccc(-c2ncc3ccn(Cc4ccc(Cl)cc4Cl)c3n2)c1
128 to 130 °C | CCOC(=O)C1=CC(=O)CCC1S(=O)(=O)Nc1ccc(F)cc1Cl (centres undefined)
130 °C | CC(CN(C)C)N1c2ccccc2Sc2ccc(C(=O)NCc3ccccc3F)cc21 (racemic)
292 to 294 °C | COc1ccc(-c2cc(O)nc(Nc3ccc(OC)c(Cl)c3)n2)cc1
